What was measured:
[1] = tested on: carrageenan induced edema in rat paw; test: Carrageenan induced edema model in rat paw; type: in vivo; conditions: 50 mg/kg oral; for Anti-inflammatory (AI) %, range over time points: range over 1, 3 and 5 h
[2] = tested on: PGE2; conditions: read-out: PGE2 inhibition IC50; cited from earlier work
[3] = tested on: rats; test: Gastric ulcerogenic liability in rats
[4] = target: T1, COX-2 (Ovis aries, UniProt P79208); test: COX-2 inhibition, enzyme immunoassay; type: biochemical, ovine; conditions: for SI = IC50 (COX-1)/ IC50 (COX-2): selectivity index
T1 sequence (P79208 17-603): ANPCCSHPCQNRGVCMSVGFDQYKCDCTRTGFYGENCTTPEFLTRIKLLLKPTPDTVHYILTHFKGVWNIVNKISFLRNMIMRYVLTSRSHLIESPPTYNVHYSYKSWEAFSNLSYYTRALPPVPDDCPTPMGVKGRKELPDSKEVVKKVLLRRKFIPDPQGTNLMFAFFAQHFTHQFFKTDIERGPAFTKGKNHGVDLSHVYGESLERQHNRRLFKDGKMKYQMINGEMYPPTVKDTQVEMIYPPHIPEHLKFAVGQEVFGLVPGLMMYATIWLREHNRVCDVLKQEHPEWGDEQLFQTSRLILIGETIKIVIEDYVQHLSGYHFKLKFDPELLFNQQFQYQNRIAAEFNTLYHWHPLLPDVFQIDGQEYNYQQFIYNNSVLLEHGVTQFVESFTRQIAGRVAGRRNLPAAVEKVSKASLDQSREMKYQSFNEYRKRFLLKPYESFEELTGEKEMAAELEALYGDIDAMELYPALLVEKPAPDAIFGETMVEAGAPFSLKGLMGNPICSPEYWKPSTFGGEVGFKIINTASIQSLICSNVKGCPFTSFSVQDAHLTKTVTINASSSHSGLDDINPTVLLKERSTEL

[5] = target: T2, COX-1 (Ovis aries, UniProt P05979); test: COX-1 inhibition, enzyme immunoassay; type: biochemical, ovine
T2 sequence (P05979 25-600): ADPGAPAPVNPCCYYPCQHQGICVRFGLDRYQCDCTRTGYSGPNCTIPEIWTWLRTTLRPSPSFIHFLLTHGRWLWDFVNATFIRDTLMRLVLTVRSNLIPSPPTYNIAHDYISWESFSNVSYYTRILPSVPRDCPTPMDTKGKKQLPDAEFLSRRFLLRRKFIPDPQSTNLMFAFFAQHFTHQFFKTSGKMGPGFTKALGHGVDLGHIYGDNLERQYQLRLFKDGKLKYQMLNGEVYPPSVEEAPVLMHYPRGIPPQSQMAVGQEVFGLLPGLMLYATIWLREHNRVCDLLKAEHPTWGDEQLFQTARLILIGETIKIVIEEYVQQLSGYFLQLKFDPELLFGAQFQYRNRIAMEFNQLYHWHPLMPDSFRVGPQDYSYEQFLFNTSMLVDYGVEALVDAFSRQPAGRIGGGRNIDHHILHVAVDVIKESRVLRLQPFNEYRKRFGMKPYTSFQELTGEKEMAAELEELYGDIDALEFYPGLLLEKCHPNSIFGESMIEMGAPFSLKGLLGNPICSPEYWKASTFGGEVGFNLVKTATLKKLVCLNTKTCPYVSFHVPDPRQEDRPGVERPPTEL

[6] = tested on: interleukin IL-6; conditions: cited from earlier work
[7] = tested on: TNF-ὰ; conditions: cited from earlier work

| Compound | Anti-Inflammatory Activity % (AI) ([1]; 1 h) [%] | Paw edema (change of paw dimensions), mean ± SEM ([1]; 1 h) | Anti-Inflammatory Activity % (AI) ([1]; 3 h) [%] | Paw edema (change of paw dimensions), mean ± SEM ([1]; 3 h) | Anti-Inflammatory Activity % (AI) ([1]; 5 h) [%] | Paw edema (change of paw dimensions), mean ± SEM ([1]; 5 h) | IC50 [2] [nM] | Relative Ulcerogenicity to Celecoxib [3] | Ulcer Index [3] | Ulcer Number [3] | IC50 [4] [nM] | SI = IC50 (COX-1)/ IC50 (COX-2) [4] | IC50 [5] [nM] | Anti-inflammatory (AI) %, range over time points [1] | inhibition of interleukin IL-6 [6] [%] | inhibition of TNF-ὰ [7] [%] |
| --- | --- | --- | --- | --- | --- | --- | --- | --- | --- | --- | --- | --- | --- | --- | --- | --- |
| Cc1ccc(-c2cc(C(F)(F)F)nn2-c2ccc(S(N)(=O)=O)cc2)cc1 [Celecoxib, reference compound] | 43 | 0.83 ± 0.09 | 43 | 0.80 ± 0.11 | 54 | 0.65 ± 0.10 | 100 | 1 | 3.00 ± 0.09 | 3.25 ± 0.17 | – | – | – | – | – | – |
| CCOC(=O)c1ccc(/N=N/c2ccc(O)c(C3c4c([nH]c(=S)[nH]c4=O)Nc4[nH]c(=S)[nH]c(=O)c43)c2)cc1 [IIIf, Ethyl (E)-4-((3-(4,6-Dioxo-2,8-Dithioxo-1,2,3,4,5,6,7,8,9,10-Decahydropyrido[2,3-D:6,5-D’]Dipyrimidin-5-Yl)-4-Hydroxyphenyl)Diazenyl)Benzoate] | 52 | – | 59 | 0.58 ± 0.11 | 66 | 0.48 ± 0.14 | – | 1.25 | 3.75 ± 0.11 | 3.75 ± 0.15 | 950 ± 10 | 11.82 | 11200 ± 270 | 52–66% | – | – |
| CCOC(=O)c1ccc(/N=N/c2cc(C3c4c([nH]c(=S)[nH]c4=O)Nc4[nH]c(=S)[nH]c(=O)c43)c(OC)cc2OC)cc1 [IIIh, Ethyl (E)-4-((5-(4,6-Dioxo-2,8-Dithioxo-1,2,3,4,5,6,7,8,9,10-Decahydropyrido[2,3-D:6,5-D’]Dipyrimidin-5-Yl)-2,4-Dimethoxyphenyl)Diazenyl)Benzoate] | 67 | 0.49 ± 0.05 | – | – | 57 | – | – | 1.75 | 5.25 ± 0.13 | 6.50 ± 0.11 | 2430 ± 70 | 3.23 | 7840 ± 160 | 57–67% | – | – |
| O=c1[nH]c(=S)[nH]c2c1C(c1cc(/N=N/c3ccc(-c4nc5ccccc5s4)cc3)ccc1O)c1c([nH]c(=S)[nH]c1=O)N2 [IIIi, (E)-5-(5-((4-(Benzo[D]thiazol-2-Yl)Phenyl)Diazenyl)-2-Hydroxyphenyl)-2,8-Dithioxo-2,3,5,8,9,10-Hexahydropyrido[2,3-D:6,5-D’]Dipyrimidine-4,6(1H,7H)-Dione] | 24 | 1.10 ± 0.14 | 43 | 0.80 ± 0.15 | 52 | 0.68 ± 0.13 | – | – | – | – | 690 ± 20 | 4.71 | 3250 ± 70 | – | – | – |
| COc1ccc2c(c1)c(CC(=O)O)c(C)n2C(=O)c1ccc(Cl)cc1 [Indomethacin, reference compound] | – | – | – | – | – | – | – | 7.5 | 22.5 ± 0.21 | 14.25 ± 0.31 | – | – | – | – | – | – |
| C[C@@H]1C[C@H]2[C@@H]3CCC4=CC(=O)C=C[C@]4(C)[C@@]3(F)[C@@H](O)C[C@]2(C)[C@@]1(O)C(=O)CO [dexamethasone] | – | – | – | – | – | – | – | – | – | – | – | – | – | – | 86 | 72 |

From paper PMC8807947 (Journal of Inflammation Research, 2022)
